The values that follow come from PMC8408276, “Distinct neuropeptide-receptor modules regulate a sex-specific behavioral response to a pheromone” (Communications Biology, 2021).

Entries after “also recorded” stand apart in the source; their conditions may differ. Where a SMILES comes first, the peptide text is derived from it. Where no end group is shown, it is not given here.

For one experiment, the target named is T1, NPR-10B (Caenorhabditis elegans, UniProt Q6EUU1).
T1 sequence (Q6EUU1 1-362): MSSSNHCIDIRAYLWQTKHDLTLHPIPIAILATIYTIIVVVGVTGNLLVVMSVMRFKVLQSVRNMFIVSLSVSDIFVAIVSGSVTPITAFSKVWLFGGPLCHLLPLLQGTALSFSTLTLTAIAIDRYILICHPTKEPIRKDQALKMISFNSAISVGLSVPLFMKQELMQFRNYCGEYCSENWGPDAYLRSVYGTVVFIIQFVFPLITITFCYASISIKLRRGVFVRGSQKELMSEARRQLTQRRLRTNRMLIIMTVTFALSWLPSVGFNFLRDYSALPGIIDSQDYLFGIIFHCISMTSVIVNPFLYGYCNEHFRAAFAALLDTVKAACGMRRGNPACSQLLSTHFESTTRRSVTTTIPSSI
Nature of the experiment: In vitro GPCR activation assay (CHO-K1, aequorin, Gα16), NPR-10B. Type of experiment: cell-based, C. elegans. The note with it: for EC50: NPR-10B in CHO-K1 cells with mtAEQ aequorin and human Gα16, peptide 1 pM to 10 µM, n ≥ 6, Fig. 4i. How it is done: (§1) The GPCR activation assay was performed as previously described[66],[74]. Briefly, npr-10 and frpr-16 cDNAs were cloned into the pcDNA3.1 TOPO expression vector (Thermo Fisher Scientific). A CHO-K1 cell line (PerkinElmer, ES-000-A24) stably expressing apo-aequorin targeted to the mitochondria (mtAEQ) and human Gα16 was transiently transfected with the receptor cDNA construct or the empty pcDNA3.1 vector using Lipofectamine LTX and Plus reagent (Thermo Fisher Scientific). Cells were shifted to 28 °C one day later and allowed to incubate for 24 h. On the day of the assay, cells were collected in BSA medium (DMEM/Ham’s F12 with 15 mM HEPES, without phenol red, 0.1% BSA) and loaded with […] coelenterazine h (Thermo Fisher Scientific) for 4 h at room temperature. The incubated cells were then added to synthetic peptides dissolved in DMEM/BSA, and luminescence was measured for 30 s at 496 nm using a Mithras LB940 (Berthold Technologies) or MicroBeta LumiJet luminometer (PerkinElmer). After 30 s of readout, 0.1% triton X-100 was added to lyse the cells, resulting in a maximal calcium response that was measured for 10 s. After initial screening, concentration-response curves were constructed for HPLC-purified FLP-3 peptides by subjecting the transfected cells to each peptide in a concentration range from 1 pM to 10 µM. Cells transfected with an empty vector were used as a negative control. Assays were performed in triplicate on at least two independent days. Concentration-response curves were fitted using Prism v. 7 (nonlinear regression analysis with a sigmoidal concentration-response equation).

The next experiment has as its target T2, FRPR-16 (Caenorhabditis elegans, UniProt Q21957).
T2 sequence (Q21957 1-340): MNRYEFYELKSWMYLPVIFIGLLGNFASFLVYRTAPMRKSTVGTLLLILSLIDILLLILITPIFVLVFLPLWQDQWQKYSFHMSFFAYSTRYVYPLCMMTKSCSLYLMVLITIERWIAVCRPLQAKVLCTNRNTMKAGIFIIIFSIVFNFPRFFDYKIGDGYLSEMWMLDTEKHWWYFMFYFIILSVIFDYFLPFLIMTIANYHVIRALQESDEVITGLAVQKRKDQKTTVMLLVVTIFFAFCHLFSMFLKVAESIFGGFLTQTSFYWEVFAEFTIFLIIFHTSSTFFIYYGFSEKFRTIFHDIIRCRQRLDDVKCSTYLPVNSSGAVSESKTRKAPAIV
Nature of the experiment: In vitro GPCR activation assay (CHO-K1, aequorin, Gα16), FRPR-16. It is filed as cell-based, C. elegans. The note with it: for EC50: FRPR-16 in CHO-K1 cells with mtAEQ aequorin and human Gα16, peptide 1 pM to 10 µM, n ≥ 6, Fig. 4i. How it is done: as §1

Another experiment has as its system C. elegans. Nature of the experiment: Single worm attraction assay (SWAA). The note with it: flp-3 lof males; Supplementary Fig. 5. It is filed as in vivo. How it is done: We adapted the spot retention assay (Supplementary Fig. 1)[28],[38] to allow for better characterization of individual worm behavior and robust interrogation of attraction to small molecules. We first compared the attractiveness of 1 µM ascr#8 (Fig. 1a, inset) across multiple strains of C. elegans (the wild-type N2 strain, the high incidence of male him-5 and him-8 strains, and the chemosensory cilia defective osm-3), using our novel behavioral assay, the single worm attraction assay (SWAA) (Fig. 1a). In this assay, individual animals are placed directly into the spot of the ascaroside cue (A) while simultaneously removing any potential of male–male contact. A spatial control is included throughout the assay plate to allow us to investigate any innate differences in the number of visits to the well center, or the time spent therein, of which we have only found one strain to date with differences in male dwell time (Fig. 1a). Likewise, a vehicle control (V) is also included, to account of any changes in dwell time that are driven by the components of the vehicle. The outer forty wells of a 48-well suspension culture plate (Olympus Plastics, Cat #: 25-103) were seeded with 200 µL of standard NGM agar. To prepare the plates for the assay, they were acclimated to room temperature, at which point each well was seeded with 65 µL of OP50 E. coli. […] A single worm was placed in each of the 10 wells to be assayed, and the plate was transferred to a light source and camera and recorded for 15 m. […] Raw dwell time values were calculated by subtracting the time a worm exited the cue (center of the well in spatial controls), from the time it entered, as in the SRA[14]. This was determined per visit, and the average dwell time was calculated for each animal in the quadrant. Averages of the four-quadrant means were determined per plate, and a minimum of five plates were assayed per strain/condition. The mean raw dwell time across five plates was calculated and used for statistical analyses and graphical display. […] The number of visits per-worm was calculated, and the average visit count determined per quadrant, and per plate. The average visit count across five plates was calculated and used for statistical analyses and graphical display. An “attractive visit” was first determined for each plate as any visit greater than two standard deviations above the mean dwell time within the vehicle control for that plate. Any individual visit meeting this threshold was scored as a “1”, and any below was scored a “0”. The percent visits per-worm that were attractive was determined, and the average of each quadrant taken. […] The average percent of attractive visits across five plates was calculated and used for statistical analyses and graphical display. […]

For another experiment, the system named is NPR-10A. The experiment is described as follows: In vitro GPCR activation assay (CHO-K1, aequorin, Gα16), NPR-10A. Type of experiment: cell-based, C. elegans. The note with it: CHO-K1 aequorin/Gα16 calcium response; Supplementary Fig. 10a. How it is done: This peptide contains an R-to-K mutation within the C-terminal motif, which may explain the lack of receptor activation.
as §1, with “After initial screening, concentration-response curves were constructed for HPLC-purified FLP-3 peptides by subjecting the transfected cells to each peptide in a concentration range from 1 pM to 10 µM. Cells transfected with an empty vector were used as a negative control. Assays were performed in triplicate on at least two independent days. Concentration-response curves were fitted using Prism v. 7 (nonlinear regression analysis with a sigmoidal concentration-response equation).” left out

The mark [1] stands for this setting: CHO-K1 aequorin/Gα16 calcium response.

In general, EC50 refers to the midpoint of the concentration-response curve. A lower EC50 goes with greater potency.

Turning to `CSCC[C@H](NC(=O)[C@@H](NC(=O)CNC(=O)[C@H](CC(C)C)NC(=O)[C@@H]1CCCN1C(=O)[C@@H](N)CO)[C@@H](C)O)C(=O)N[C@@H](CCCNC(=N)N)C(=O)N[C@@H](Cc1ccccc1)C(N)=O` [FLP-3-1, SPLGTMRFamide] (H-SPLGTMRF-NH2), the EC50 amounted to 262 nM on NPR-10B (luminescence 30 s) and 7.4 nM at FRPR-16 (luminescence 30 s).

Regarding `CSCC[C@H](NC(=O)[C@@H](NC(=O)CNC(=O)[C@H](CC(C)C)NC(=O)[C@@H]1CCCN1C(=O)[C@@H](N)[C@@H](C)O)[C@@H](C)O)C(=O)N[C@@H](CCCNC(=N)N)C(=O)N[C@@H](Cc1ccccc1)C(N)=O` [FLP-3-2, TPLGTMRFamide] (H-TPLGTMRF-NH2), the half-maximal effective concentration (EC50) was determined as 367 nM at NPR-10B (luminescence 30 s) and 31.7 nM on FRPR-16 (luminescence 30 s).

`CSCC[C@H](NC(=O)[C@@H](NC(=O)CNC(=O)[C@H](CC(C)C)NC(=O)[C@@H]1CCCN1C(=O)[C@H](CCC(=O)O)NC(=O)[C@H](CCC(=O)O)NC(=O)[C@H](C)NC(=O)[C@@H](N)CCC(=O)O)[C@@H](C)O)C(=O)N[C@@H](CCCNC(=N)N)C(=O)N[C@@H](Cc1ccccc1)C(N)=O` [FLP-3-3, EAEEPLGTMRFamide] (H-EAEEPLGTMRF-NH2): the values for the EC50 on NPR-10B (luminescence 30 s) and at FRPR-16 (luminescence 30 s) were 867 nM and 288 nM, respectively.

`CSCC[C@H](NC(=O)[C@@H](NC(=O)CNC(=O)[C@H](CC(C)C)NC(=O)[C@@H]1CCCN1C(=O)[C@@H](N)CC(N)=O)[C@@H](C)O)C(=O)N[C@@H](CCCNC(=N)N)C(=O)N[C@@H](Cc1ccccc1)C(N)=O` [FLP-3-4, NPLGTMRFamide] (H-NPLGTMRF-NH2): the half-maximal effective concentration (EC50) stood at 427 nM on NPR-10B (luminescence 30 s) and 10.7 nM on FRPR-16 (luminescence 30 s).

Consider `CSCC[C@H](NC(=O)[C@@H](NC(=O)CNC(=O)[C@H](Cc1ccccc1)NC(=O)[C@H](CC(C)C)NC(=O)[C@H](C)NC(=O)[C@H](CC(=O)O)NC(=O)[C@H](CCC(=O)O)NC(=O)[C@H](CO)NC(=O)[C@H](C)N)[C@@H](C)O)C(=O)N[C@@H](CCCNC(=N)N)C(=O)N[C@@H](Cc1ccccc1)C(N)=O` [FLP-3-5, ASEDALFGTMRFamide] (H-ASEDALFGTMRF-NH2), for which the EC50 on NPR-10B worked out at 1100 nM; at FRPR-16 (luminescence 30 s), 72.1 nM.

`CSCC[C@H](NC(=O)[C@@H](NC(=O)CNC(=O)[C@H](Cc1ccccc1)NC(=O)[C@@H]1CCCN1C(=O)[C@H](CCC(=O)O)NC(=O)[C@H](C)NC(=O)[C@@H](N)CO)[C@@H](C)O)C(=O)N[C@@H](CCCNC(=N)N)C(=O)N[C@@H](Cc1ccccc1)C(N)=O` [FLP-3-7, SAEPFGTMRFamide] (H-SAEPFGTMRF-NH2): the EC50 worked out at 439 nM on NPR-10B (luminescence 30 s) and 39.5 nM at FRPR-16 (luminescence 30 s).

Consider `CSCC[C@H](NC(=O)[C@@H](NC(=O)CNC(=O)[C@H](Cc1ccccc1)NC(=O)[C@@H]1CCCN1C(=O)[C@H](C)NC(=O)[C@H](CO)NC(=O)[C@H](CC(=O)O)NC(=O)[C@H](CC(=O)O)NC(=O)[C@H](C)NC(=O)[C@@H](N)CO)[C@@H](C)O)C(=O)N[C@@H](CCCNC(=N)N)C(=O)N[C@@H](Cc1ccccc1)C(N)=O` [FLP-3-8, SADDSAPFGTMRFamide] (H-SADDSAPFGTMRF-NH2), for which the concentration for a half-maximal effect (EC50) at FRPR-16 came to 1600 nM.

`CSCC[C@H](NC(=O)[C@@H](NC(=O)CNC(=O)[C@H](Cc1ccccc1)NC(=O)[C@@H]1CCCN1C(=O)[C@@H](NC(=O)[C@H](CC(=O)O)NC(=O)[C@H](CC(N)=O)NC(=O)[C@H](CCC(=O)O)NC(=O)[C@@H]1CCCN1C(=O)[C@@H](N)CC(N)=O)[C@@H](C)O)[C@@H](C)O)C(=O)N[C@@H](CCCNC(=N)N)C(=O)N[C@@H](Cc1ccccc1)C(N)=O` [FLP-3-9, NPENDTPFGTMRFamide] (H-NPENDTPFGTMRF-NH2): the concentration for a half-maximal effect (EC50) on NPR-10B (luminescence 30 s) came to 760 nM; on FRPR-16 (luminescence 30 s) it was 88.3 nM.

Turning to `C[C@H](CCCC/C=C/C(=O)O)O[C@@H]1O[C@@H](C)[C@H](O)C[C@H]1O` [ascr#3], the “Attractive response, in words” value with C. elegans is recorded as “no defect”.

As for “EDGNAPFGTMKF-NH2 [FLP-3-6, flp-3 encoded peptide with R-to-K mutation within the C-terminal motif]”, the “Activation of NPR-10A, in words” value in the experiment with NPR-10A is reported as “activated no receptors”. The “Activation of NPR-10 (NPR-10B), in words” value at NPR-10B (setting [1]) is on record as “activated no receptors; also recorded: did not activate either receptor”. Also, at FRPR-16 (setting [1]), the “Activation of FRPR-16, in words” value is “activated no receptors; also recorded: did not activate either receptor”.
